Like-named read-outs stand apart in the source and are kept apart here.
Assays:
[1] = test system: 60 cancer cell lines (NCI 60 cancer cell line series); details: cited from earlier work
[2] = test system: 60 cancer cell lines (NCI 60 cancer cell line series); experiment: NCI-DTP in vitro cancer screen, sulforhodamine B (SRB) growth inhibition, 48 hour exposure; type: cell-based, human
How it was run: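 NCI-DTP panel of 60 cancer cell lines plated day 0 at line-specific densities, exposed from day 1 to compound at 5 ten-fold-spaced doses in duplicate wells. After 48 h, cell mass stained with sulforhodamine B; −log GI50 derived from dose–response curves, averaged, and classed Low, Medium or High sensitivity.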

N.N.[Cl][Pt][Cl] [cisplatin, cis-Diamminedichloroplatinum (II), reference compound]
−Log (GI50) ([1]; Breast MCF7(I) CL5001): 5.5
−Log (GI50) ([1]; Ovarian SK-OV-3 CL6011): 5.2
classification of cell line as Low(1), Medium(2), High(3) sensitivity to compound ([2]; Breast BT-549 CL5013): 2
classification of cell line as Low(1), Medium(2), High(3) sensitivity to compound ([2]; Breast HS-578T CL5006): 2
classification of cell line as Low(1), Medium(2), High(3) sensitivity to compound ([2]; Breast MCF7/ADRr CL5002): 2
classification of cell line as Low(1), Medium(2), High(3) sensitivity to compound ([2]; Breast MDA-MB-231 CL5005): 1
classification of cell line as Low(1), Medium(2), High(3) sensitivity to compound ([2]; Breast MDA-N CL5012): 2
classification of cell line as Low(1), Medium(2), High(3) sensitivity to compound ([2]; Breast T-47D CL5014): 1
classification of cell line as Low(1), Medium(2), High(3) sensitivity to compound ([2]; CNS SF-268 CL12014): 3
classification of cell line as Low(1), Medium(2), High(3) sensitivity to compound ([2]; CNS SF-539 CL12016): 2
classification of cell line as Low(1), Medium(2), High(3) sensitivity to compound ([2]; CNS SNB-75(I) CL12005): 2
classification of cell line as Low(1), Medium(2), High(3) sensitivity to compound ([2]; CNS U251(I) CL12009): 2
classification of cell line as Low(1), Medium(2), High(3) sensitivity to compound ([2]; Colon COLO-250 CL4010): 1
classification of cell line as Low(1), Medium(2), High(3) sensitivity to compound ([2]; Colon HCC-2998 CL4002): 2
classification of cell line as Low(1), Medium(2), High(3) sensitivity to compound ([2]; Colon HCT-15 CL4015): 1
classification of cell line as Low(1), Medium(2), High(3) sensitivity to compound ([2]; Colon HT29(I) CL4001): 1
classification of cell line as Low(1), Medium(2), High(3) sensitivity to compound ([2]; Colon SW-620 CL4009): 2
classification of cell line as Low(1), Medium(2), High(3) sensitivity to compound ([2]; Leukemia HL-60(I) CL7008): 3
classification of cell line as Low(1), Medium(2), High(3) sensitivity to compound ([2]; Leukemia K562(I) CL7005): 2
classification of cell line as Low(1), Medium(2), High(3) sensitivity to compound ([2]; Leukemia RPMI-8226(I) CL7010): 2
classification of cell line as Low(1), Medium(2), High(3) sensitivity to compound ([2]; Melanoma LOX IMVI CL10001): 3
classification of cell line as Low(1), Medium(2), High(3) sensitivity to compound ([2]; Melanoma M14 CL10014): 2
classification of cell line as Low(1), Medium(2), High(3) sensitivity to compound ([2]; Melanoma SK-MEL-28 CL10008): 2
sensitivity classification Low(1)/Medium(2)/High(3) ([2]; NSCLC NCI-H23(I) CL1001): 3
sensitivity classification Low(1)/Medium(2)/High(3) ([2]; NSCLC NCI-H460 CL1021): 3
sensitivity classification Low(1)/Medium(2)/High(3) ([2]; NSCLC NCI-H522 CL1003): 2
sensitivity classification Low(1)/Medium(2)/High(3) ([2]; Ovarian IGROV1 CL6010): 2
sensitivity classification Low(1)/Medium(2)/High(3) ([2]; Ovarian OVCAR-4 CL6002): 2
sensitivity classification Low(1)/Medium(2)/High(3) ([2]; Ovarian OVCAR-5 CL6003): 2
sensitivity classification Low(1)/Medium(2)/High(3) ([2]; Ovarian OVCAR-8 CL6005): 2
sensitivity classification Low(1)/Medium(2)/High(3) ([2]; Prostate DU-145 CL11003): 2
sensitivity classification Low(1)/Medium(2)/High(3) ([2]; Renal A498 CL9013): 1
sensitivity classification Low(1)/Medium(2)/High(3) ([2]; Renal RXF-393 CL9016): 2
sensitivity classification Low(1)/Medium(2)/High(3) ([2]; Renal UO-31 CL9004): 2

Bleomycin
−Log (GI50) ([1]; CNS SF-539 CL12016): 7.7
−Log (GI50) ([1]; Melanoma LOX IMVI CL10001): 6.8
−Log (GI50) ([1]; Ovarian OVCAR-3 CL6001): 5.3
classification of cell line as Low(1), Medium(2), High(3) sensitivity to compound ([2]; Breast MCF7(I) CL5001): 2
classification of cell line as Low(1), Medium(2), High(3) sensitivity to compound ([2]; Breast MCF7/ADRr CL5002): 2
classification of cell line as Low(1), Medium(2), High(3) sensitivity to compound ([2]; Breast MDA-MB-231 CL5005): 1
classification of cell line as Low(1), Medium(2), High(3) sensitivity to compound ([2]; Breast MDA-MB-435 CL5011): 1
classification of cell line as Low(1), Medium(2), High(3) sensitivity to compound ([2]; Breast MDA-N CL5012): 1
classification of cell line as Low(1), Medium(2), High(3) sensitivity to compound ([2]; Breast T-47D CL5014): 2
classification of cell line as Low(1), Medium(2), High(3) sensitivity to compound ([2]; CNS SF-268 CL12014): 2
classification of cell line as Low(1), Medium(2), High(3) sensitivity to compound ([2]; CNS SF-295 CL12015): 3
classification of cell line as Low(1), Medium(2), High(3) sensitivity to compound ([2]; CNS SF-539 CL12016): 3
classification of cell line as Low(1), Medium(2), High(3) sensitivity to compound ([2]; CNS SNB-19 CL12002): 2
classification of cell line as Low(1), Medium(2), High(3) sensitivity to compound ([2]; CNS SNB-75(I) CL12005): 2
classification of cell line as Low(1), Medium(2), High(3) sensitivity to compound ([2]; CNS U251(I) CL12009): 2
classification of cell line as Low(1), Medium(2), High(3) sensitivity to compound ([2]; Colon COLO-250 CL4010): 2
classification of cell line as Low(1), Medium(2), High(3) sensitivity to compound ([2]; Colon HCT-15 CL4015): 2
classification of cell line as Low(1), Medium(2), High(3) sensitivity to compound ([2]; Colon HCT-116 CL4003): 2
classification of cell line as Low(1), Medium(2), High(3) sensitivity to compound ([2]; Colon HT29(I) CL4001): 1
classification of cell line as Low(1), Medium(2), High(3) sensitivity to compound ([2]; Colon KM12 CL4017): 1
classification of cell line as Low(1), Medium(2), High(3) sensitivity to compound ([2]; Colon SW-620 CL4009): 2
classification of cell line as Low(1), Medium(2), High(3) sensitivity to compound ([2]; Leukemia CCRF-CEM(I) CL7003): 2
classification of cell line as Low(1), Medium(2), High(3) sensitivity to compound ([2]; Leukemia HL-60(I) CL7008): 2
classification of cell line as Low(1), Medium(2), High(3) sensitivity to compound ([2]; Leukemia K562(I) CL7005): 2
classification of cell line as Low(1), Medium(2), High(3) sensitivity to compound ([2]; Leukemia MOLT-4 CL7006): 2
classification of cell line as Low(1), Medium(2), High(3) sensitivity to compound ([2]; Leukemia SR CL7019): 3
classification of cell line as Low(1), Medium(2), High(3) sensitivity to compound ([2]; Melanoma LOX IMVI CL10001): 3
classification of cell line as Low(1), Medium(2), High(3) sensitivity to compound ([2]; Melanoma M14 CL10014): 2
classification of cell line as Low(1), Medium(2), High(3) sensitivity to compound ([2]; Melanoma MALME-3M CL10002): 2
classification of cell line as Low(1), Medium(2), High(3) sensitivity to compound ([2]; Melanoma SK-MEL-2 CL10005): 1
classification of cell line as Low(1), Medium(2), High(3) sensitivity to compound ([2]; Melanoma SK-MEL-28 CL10008): 1
sensitivity classification Low(1)/Medium(2)/High(3) ([2]; NSCLC NCI-H23(I) CL1001): 2
sensitivity classification Low(1)/Medium(2)/High(3) ([2]; NSCLC NCI-H332M CL1017): 1
sensitivity classification Low(1)/Medium(2)/High(3) ([2]; NSCLC NCI-H522 CL1003): 2
sensitivity classification Low(1)/Medium(2)/High(3) ([2]; Ovarian IGROV1 CL6010): 2
sensitivity classification Low(1)/Medium(2)/High(3) ([2]; Ovarian OVCAR-3 CL6001): 2
sensitivity classification Low(1)/Medium(2)/High(3) ([2]; Ovarian OVCAR-4 CL6002): 2
sensitivity classification Low(1)/Medium(2)/High(3) ([2]; Ovarian OVCAR-5 CL6003): 2
sensitivity classification Low(1)/Medium(2)/High(3) ([2]; Ovarian OVCAR-8 CL6005): 2
sensitivity classification Low(1)/Medium(2)/High(3) ([2]; Ovarian SK-OV-3 CL6011): 2
sensitivity classification Low(1)/Medium(2)/High(3) ([2]; Prostate DU-145 CL11003): 2
sensitivity classification Low(1)/Medium(2)/High(3) ([2]; Prostate PC-3(I) CL11001): 2
sensitivity classification Low(1)/Medium(2)/High(3) ([2]; Renal 786-0 CL9018): 2
sensitivity classification Low(1)/Medium(2)/High(3) ([2]; Renal A498 CL9013): 2
sensitivity classification Low(1)/Medium(2)/High(3) ([2]; Renal ACHN CL9023): 3
sensitivity classification Low(1)/Medium(2)/High(3) ([2]; Renal SN12C CL9008): 2
sensitivity classification Low(1)/Medium(2)/High(3) ([2]; Renal TK10 CL9024): 1

Reference: patent US20030129629A1, “Methods and compositions for the identification, assessment, prevention, and therapy of human cancers” (Millennium Pharmaceuticals, Inc., priority 2000, published 2003)
